Patent US20230023559A1, “ARYLMETHYLENE HETEROCYCLIC COMPOUNDS AS KV1.3 POTASSIUM SHAKER CHANNEL BLOCKERS” (D. E. Shaw Research, LLC, priority 2019, published 2023)

How the values were obtained:
Kv1.3 potassium channel = molecular target: T1, Kv1.3 potassium channel (Homo sapiens, UniProt P22001); assay: Kv1.3 potassium channel blocker activity, automated whole-cell patch clamp (Patchliner); type: cell-based; details: CHO-K1 cells stably expressing Kv1.3; whole cell current inhibition; read-out: Kv1.3_IC50
T1 construct: expressed in transfected cells
T1 sequence (P22001 whole entry): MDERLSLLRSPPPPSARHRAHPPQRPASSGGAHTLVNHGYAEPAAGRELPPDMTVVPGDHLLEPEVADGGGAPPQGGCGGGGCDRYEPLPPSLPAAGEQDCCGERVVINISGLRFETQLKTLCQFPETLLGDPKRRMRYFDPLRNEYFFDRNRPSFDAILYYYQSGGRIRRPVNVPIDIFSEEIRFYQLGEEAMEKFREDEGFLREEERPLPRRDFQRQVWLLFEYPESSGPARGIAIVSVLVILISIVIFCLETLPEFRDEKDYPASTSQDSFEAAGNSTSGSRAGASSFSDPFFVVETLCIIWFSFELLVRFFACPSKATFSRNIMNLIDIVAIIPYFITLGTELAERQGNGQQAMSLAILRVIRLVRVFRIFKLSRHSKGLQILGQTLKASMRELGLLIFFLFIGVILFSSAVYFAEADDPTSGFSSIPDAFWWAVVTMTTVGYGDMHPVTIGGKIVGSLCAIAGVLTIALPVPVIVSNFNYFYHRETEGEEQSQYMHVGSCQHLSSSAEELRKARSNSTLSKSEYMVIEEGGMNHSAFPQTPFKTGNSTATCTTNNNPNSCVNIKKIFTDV
Method in brief: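 CHO-K1 cells stably expressing Kv1.3, automated whole-cell patch clamp. Currents evoked by 100 ms steps from −90 mV holding to +40 mV at 0.1 Hz, sampled at 10 kHz unfiltered, P/4 leak subtraction; peak current inhibition measured, compound incubation ≤10 s between pulse trains.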

hERG channel = hERG channel (Homo sapiens, UniProt Q12809); assay: hERG electrophysiology, automated whole-cell patch clamp (Patchliner)
Chain of hERG channel (Q12809 whole entry): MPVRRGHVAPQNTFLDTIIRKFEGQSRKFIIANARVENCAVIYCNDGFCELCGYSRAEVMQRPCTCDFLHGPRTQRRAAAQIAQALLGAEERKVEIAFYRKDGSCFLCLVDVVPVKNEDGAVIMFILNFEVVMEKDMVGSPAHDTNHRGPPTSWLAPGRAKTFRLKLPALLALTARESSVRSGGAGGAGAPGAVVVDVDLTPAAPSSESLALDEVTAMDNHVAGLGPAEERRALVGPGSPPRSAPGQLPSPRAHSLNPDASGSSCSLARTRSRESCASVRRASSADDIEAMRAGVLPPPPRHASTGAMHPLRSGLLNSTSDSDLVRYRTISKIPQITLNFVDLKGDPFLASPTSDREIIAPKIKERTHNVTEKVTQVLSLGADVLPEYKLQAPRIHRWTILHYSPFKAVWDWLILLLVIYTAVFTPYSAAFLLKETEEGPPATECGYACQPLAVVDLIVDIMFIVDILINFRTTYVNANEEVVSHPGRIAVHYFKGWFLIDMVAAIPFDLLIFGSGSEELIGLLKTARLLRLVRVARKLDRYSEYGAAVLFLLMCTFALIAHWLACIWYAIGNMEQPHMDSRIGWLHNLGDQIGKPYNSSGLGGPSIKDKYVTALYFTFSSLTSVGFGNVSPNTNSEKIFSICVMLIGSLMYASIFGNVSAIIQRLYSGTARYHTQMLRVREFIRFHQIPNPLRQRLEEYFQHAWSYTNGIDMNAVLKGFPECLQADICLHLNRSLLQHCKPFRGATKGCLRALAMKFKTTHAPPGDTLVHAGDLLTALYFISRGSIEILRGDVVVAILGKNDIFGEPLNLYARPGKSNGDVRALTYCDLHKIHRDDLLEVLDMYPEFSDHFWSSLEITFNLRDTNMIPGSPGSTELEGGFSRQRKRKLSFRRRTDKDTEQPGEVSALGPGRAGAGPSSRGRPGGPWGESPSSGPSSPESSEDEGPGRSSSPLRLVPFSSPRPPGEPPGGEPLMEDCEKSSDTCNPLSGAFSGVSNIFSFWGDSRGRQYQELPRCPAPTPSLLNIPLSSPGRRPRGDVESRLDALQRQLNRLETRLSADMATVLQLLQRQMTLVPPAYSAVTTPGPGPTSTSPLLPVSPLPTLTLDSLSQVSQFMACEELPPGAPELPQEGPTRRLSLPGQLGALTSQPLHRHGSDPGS

Cc1cc(O)c([C@H](N)C2CCN(C(=O)c3ccc(=O)[nH]c3)CC2)c(F)c1Cl [Compound 272, 5-[4-[(R)-amino(3-chloro-2-fluoro-6-hydroxy-4-methylphenyl)methyl]piperidine-1-carbonyl]-1H-pyridin-2-one Trifluoroacetic Acid]
IC50 (Kv1.3 potassium channel): < 0.5 µM | IC50 (hERG channel): > 30 µM

O=C([C@@H]1CCNC1)N1CCC(C(O)c2c(O)ccc(Cl)c2Cl)CC1 (stereo partly drawn) [Compound 126, 3,4-dichloro-2-[hydroxy([1-[(3R)-pyrrolidine-3-carbonyl]piperidin-4-yl])methyl]phenol Trifluoroacetic Acid]
IC50 (Kv1.3 potassium channel): < 10 µM | IC50 (hERG channel): > 30 µM

C[C@@H](O)[C@H](N)C(=O)N1CCC([C@@H](N)c2cc(Cl)c(Cl)cc2O)CC1 [Compound 174, (2S,3R)-2-amino-1-[4-[(R)-amino(4,5-dichloro-2-hydroxyphenyl)methyl]piperidin-1-yl]-3-hydroxybutan-1-one bis (trifluoroacetic acid)]
IC50 (Kv1.3 potassium channel): < 10 µM | IC50 (hERG channel): > 30 µM

N[C@@H](c1cc(Cl)c(Cl)cc1O)C1CCN(C(=O)c2cnc[nH]2)CC1 [Compound 164, 2-[(R)-amino[1-(1H-imidazole-4-carbonyl)piperidin-4-yl]methyl]-4,5-dichlorophenol formic acid]
IC50 (Kv1.3 potassium channel): < 10 µM | IC50 (hERG channel): > 30 µM

N[C@@H](c1c(O)cc(Cl)c(Cl)c1F)C1CCN(C(=O)c2ccc(=O)[nH]c2)CC1 [Compound 257, 5-[4-[(R)-amino(3,4-dichloro-2-fluoro-6-hydroxyphenyl)methyl]piperidine-1-carbonyl]-1H-pyridin-2-one Trifluoroacetic Acid]
IC50 (Kv1.3 potassium channel): < 0.5 µM | IC50 (hERG channel): > 30 µM

N[C@H](c1c(O)cc(Cl)c(Cl)c1Cl)C1CCNCC1 (single isomer, unassigned) [Compound 60, Trifluoroacetic Acid]
IC50 (Kv1.3 potassium channel): < 30 µM | IC50 (hERG channel): > 30 µM

NC(c1cc(Cl)c(Cl)cc1O)C1CCN(S(=O)(=O)N2CCCC2)CC1 (stereo not shown) [Compound 45, 2-(amino(1-(pyrrolidin-1-ylsulfonyl)piperidin-4-yl)methyl)-4,5-dichlorophenol Trifluoroacetic Acid]
IC50 (Kv1.3 potassium channel): < 10 µM | IC50 (hERG channel): < 30 µM

Cc1cc(O)c([C@H](N)C2CCN(C(=O)c3ccc(=O)n(CCO)c3)CC2)cc1Cl [Compound 249, 5-[4-[(R)-amino (5-chloro-2-hydroxy-4-methylphenyl)methyl]piperidine-1-carbonyl]-1-(2-hydroxyethyl) pyridin-2-one trifluoroacetic acid]
IC50 (Kv1.3 potassium channel): < 0.5 µM | IC50 (hERG channel): > 30 µM

NC(c1cc(Cl)c(Cl)cc1O)C1CCNCC1 (stereo not shown) [Compound 1, 2-(amino(piperidin-4-yl)methyl)-4,5-dichlorophenol Trifluoroacetic Acid]
IC50 (Kv1.3 potassium channel): < 10 µM | IC50 (hERG channel): > 30 µM

N[C@@H](c1cc(Cl)c(Cl)cc1O)C1CCN(C(=O)c2cc(=O)[nH]cn2)CC1 [Compound 176, (R)-(4-(amino (4,5-dichloro-2-hydroxyphenyl)methyl)piperidin-1-yl)(6-hydroxy-pyrimidin-4-yl)methanone trifluoroacetic acid]
IC50 (Kv1.3 potassium channel): < 10 µM | IC50 (hERG channel): > 30 µM

NC(c1cc(Cl)c(Cl)cc1O)C1CCN(C(=O)[C@H]2CCNC2)CC1 (stereo partly drawn) [Compound 63, (4-(amino(4,5-dichloro-2-hydroxyphenyl)methyl)piperidin-1-yl)((S)-pyrrolidin-3-yl)methanone Trifluoroacetic Acid]
IC50 (Kv1.3 potassium channel): < 0.5 µM | IC50 (hERG channel): > 30 µM

C[C@H](CO)C(=O)N1CCC([C@@H](N)c2cc(Cl)c(Cl)cc2O)CC1 [Compound 304, (2R)-1-[4-[(R)-amino(4,5-dichloro-2-hydroxyphenyl)methyl]piperidin-1-yl]-3-hydroxy-2-methylpropan-1-one]
IC50 (Kv1.3 potassium channel): < 0.5 µM | IC50 (hERG channel): > 30 µM

C[C@@H](N)C(=O)N1CCC([C@@H](N)c2cc(Cl)c(Cl)cc2O)CC1 (single isomer, unassigned) [Compound 69]
IC50 (Kv1.3 potassium channel): < 0.5 µM | IC50 (hERG channel): > 30 µM

N[C@@H](c1cc(Cl)c(Cl)cc1O)C1CCN(C(=O)C2CC(F)(F)C2)CC1 [Compound 161, 2-[(R)-amino[1-(3,3-difluorocyclo-butanecarbonyl)piperidin-4-yl]methyl]-4,5-dichlorophenol]
IC50 (Kv1.3 potassium channel): < 10 µM | IC50 (hERG channel): < 30 µM

N[C@@H](c1cc(Cl)c(Cl)cc1O)C1CCN(C(=O)[C@@H]2OCC[C@@H]2O)CC1 [Compound 260, (2R,3S)-2-[4-[(R)-amino(4,5-dichloro-2-hydroxyphenyl)methyl]piperidine-1-carbonyl]oxolan-3-ol Trifluoroacetic Acid]
IC50 (Kv1.3 potassium channel): < 0.5 µM | IC50 (hERG channel): > 30 µM

N[C@@H](c1cc(Cl)c(Cl)cc1O)C1CCN(C(=O)C2CC3(CC(O)C3)C2)CC1 (stereo partly drawn) [Compound 320, 6-[4-[(R)-amino(4,5-dichloro-2-hydroxyphenyl)methyl]piperidine-1-carbonyl]spiro [3.3]heptan-2-ol trifluoroacetic acid]
IC50 (Kv1.3 potassium channel): < 10 µM | IC50 (hERG channel): < 30 µM

N[C@@H](c1cc(Cl)c(Cl)cc1O)C1CCN(C(=O)C2CNC(=O)C2)CC1 (stereo partly drawn) [Compound 223, 4-[4-[(R)-amino(4,5-dichloro-2-hydroxyphenyl)methyl]piperidine-1-carbonyl] pyrrolidin-2-one trifluoroacetic acid]
IC50 (Kv1.3 potassium channel): < 0.5 µM | IC50 (hERG channel): > 30 µM

N[C@@H](c1cc(Cl)c(Cl)cc1O)C1CCN(C(=O)C2CNC(=O)NC2)CC1 [Compound 275, 5-[4-[(R)-amino(4,5-dichloro-2-hydroxyphenyl)methyl]piperidine-1-carbonyl]-1,3-diazinan-2-one Trifluoroacetic Acid]
IC50 (Kv1.3 potassium channel): < 0.5 µM | IC50 (hERG channel): > 30 µM

N[C@@H](c1cc2ccccc2cc1O)C1CCN(C(=O)[C@H](O)CO)CC1 [Compound 189, (2R)-1-[4-[(R)-amino(3-hydroxynaphthalen-2-yl)methyl]piperidin-1-yl]-2,3-dihydroxypropan-1-one Trifluoroacetic Acid]
IC50 (Kv1.3 potassium channel): < 0.5 µM | IC50 (hERG channel): > 30 µM

N[C@@H](c1cc(Cl)c(Cl)cc1O)C1CCN(C(=O)[C@H]2CCN2)CC1 [Compound 95, (4-((R)-amino(4,5-dichloro-2-hydroxyphenyl)methyl)piperidin-1-yl)((R)-azetidin-2-yl)methanone]
IC50 (Kv1.3 potassium channel): < 0.5 µM | IC50 (hERG channel): > 30 µM

N[C@@H](c1c(O)cc(Cl)c(Cl)c1F)C1CCN(C(=O)[C@H](O)CO)CC1 [Compound 291, (R)-1-(4-((R)-amino(3,4-dichloro-2-fluoro-6-hydroxyphenyl)methyl)piperidin-1-yl)-2,3-dihydroxypropan-1-one]
IC50 (Kv1.3 potassium channel): < 0.5 µM | IC50 (hERG channel): > 30 µM

CC(=O)N[C@H](c1cc(Cl)c(Cl)cc1O)C1CCNCC1 (single isomer, unassigned) [Compound 10]
IC50 (Kv1.3 potassium channel): < 10 µM | IC50 (hERG channel): > 30 µM

N[C@@H](c1cc(Cl)c(C(F)(F)F)cc1O)C1CCN(C(=O)[C@H](O)CO)CC1 [Compound 284, (2R)-1-[4-[(R)-amino[5-chloro-2-hydroxy-4-(trifluoromethyl)phenyl]methyl]piperidin-1-yl]-2,3-dihydroxypropan-1-one]
IC50 (Kv1.3 potassium channel): < 10 µM | IC50 (hERG channel): > 30 µM

N[C@@H](c1cc(Cl)c(Cl)cc1O)C1CCN(C(=O)[C@H]2CCC(=O)NC2)CC1 (single isomer, unassigned; isomer 1) [Compound 221]
IC50 (Kv1.3 potassium channel): < 0.5 µM | IC50 (hERG channel): > 30 µM

Nc1cccc(N2CCC([C@@H](N)c3cc(Cl)c(Cl)cc3O)CC2)n1 [Compound 146, (R)-2-(amino(1-(6-aminopyridin-2-yl)piperidin-4-yl)methyl)-4,5-dichlorophenol Trifluoroacetic Acid]
IC50 (Kv1.3 potassium channel): < 10 µM | IC50 (hERG channel): < 30 µM

Cc1cc(O)c([C@H](N)C2CCN(C(=O)c3ccc(=O)n(C)c3)CC2)cc1Cl [Compound 239, 5-[4-[(R)-amino (5-chloro-2-hydroxy-4-methylphenyl)methyl]piperidine-1-carbonyl]-1-methylpyridin-2(1H)-one trifluoroacetic acid]
IC50 (Kv1.3 potassium channel): < 0.5 µM | IC50 (hERG channel): > 30 µM
